Legend:
Assay in all cases: relative viability (nuclei count vs DMSO), 5 days (fraction); higher = more cells survive
[1] = system: NCI-H1666
Summary of the method: (§1)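 The day after seeding in 1536-well plates, lung cancer cell lines were treated by pin tool with a single drug, or with a fixed anchor-drug dose together with five library-drug doses (not always all listed) in √10 steps. After 5 days, a combined fix-and-stain solution (final 0.05% Triton X-100, 1% formaldehyde, 1 ug/ml Hoechst) was added. Nuclei counted on 4× images gave relative viability as treated counts over vehicle counts, reported as the median of duplicate plates.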

[2] = system: HCC-827
Summary of the method: as §1

[3] = system: EPLC-272H
Summary of the method: as §1

[4] = system: LU99A
Summary of the method: as §1

[5] = system: HOP-62
Summary of the method: as §1

[6] = system: 201T
Summary of the method: as §1

[7] = system: LCLC-97TM1
Summary of the method: as §1

[8] = system: H3255
Summary of the method: as §1

[9] = system: NCI-H2085
Summary of the method: as §1

[10] = system: EKVX
Summary of the method: as §1

[11] = system: PC-3 [JPC-3]
Summary of the method: as §1

[12] = system: NCI-H647
Summary of the method: as §1

[13] = system: NCI-H358
Summary of the method: as §1

[14] = system: NCI-H1975
Summary of the method: as §1

[15] = system: SW 1573
Summary of the method: as §1

[16] = system: NCI-H2087
Summary of the method: as §1

[17] = system: HCC-44
Summary of the method: as §1

[18] = system: BEN
Summary of the method: as §1

[19] = system: COR-L 105
Summary of the method: as §1

[20] = system: NCI-H1437
Summary of the method: as §1

[21] = system: LOU-NH91
Summary of the method: as §1

CC1(C)CCC(c2ccc(Cl)cc2)=C(CN2CCN(c3ccc(C(=O)NS(=O)(=O)c4ccc(N[C@H](CCN5CCOCC5)CSc5ccccc5)c(S(=O)(=O)C(F)(F)F)c4)cc3)CC2)C1 [Navitoclax] + C[C@@H](Oc1cc(-c2cnn(C3CCNCC3)c2)cnc1N)c1c(Cl)ccc(F)c1Cl [Crizotinib] (partner 1 µM)
relative viability ([1]; first compound 0.005 µM): 0.991 | relative viability ([1]; first compound 0.01581 µM): 1.08 | relative viability ([1]; first compound 0.05 µM): 1.03 | relative viability ([1]; first compound 0.1581 µM): 0.879 | relative viability ([1]; first compound 0.5 µM): 0.975 | relative viability ([2]; first compound 0.005 µM): 0.96 | relative viability ([2]; first compound 0.01581 µM): 0.962 | relative viability ([2]; first compound 0.05 µM): 0.966 | relative viability ([2]; first compound 0.1581 µM): 0.958 | relative viability ([2]; first compound 0.5 µM): 0.935 | relative viability ([3]; first compound 0.005 µM): 1.37 | relative viability ([3]; first compound 0.1581 µM): 0.99 | relative viability ([3]; first compound 0.5 µM): 1.08 | relative viability ([4]; first compound 0.005 µM): 0.549 | relative viability ([4]; first compound 0.01581 µM): 0.691 | relative viability ([4]; first compound 0.05 µM): 0.39 | relative viability ([4]; first compound 0.1581 µM): 0.588 | relative viability ([4]; first compound 0.5 µM): 0.638 | relative viability ([5]; first compound 0.005 µM): 0.965 | relative viability ([5]; first compound 0.01581 µM): 1.09 | relative viability ([5]; first compound 0.05 µM): 0.926 | relative viability ([5]; first compound 0.1581 µM): 0.917 | relative viability ([5]; first compound 0.5 µM): 1.03 | relative viability ([6]; first compound 0.005 µM): 1.03 | relative viability ([6]; first compound 0.01581 µM): 1.05 | relative viability ([6]; first compound 0.05 µM): 0.975 | relative viability ([6]; first compound 0.1581 µM): 1.04 | relative viability ([6]; first compound 0.5 µM): 1.03 | relative viability ([7]; first compound 0.005 µM): 0.358 | relative viability ([7]; first compound 0.01581 µM): 0.337 | relative viability ([7]; first compound 0.05 µM): 0.294 | relative viability ([7]; first compound 0.1581 µM): 0.333 | relative viability ([7]; first compound 0.5 µM): 0.381 | relative viability ([8]; first compound 0.005 µM): 0.902 | relative viability ([8]; first compound 0.01581 µM): 1.06 | relative viability ([8]; first compound 0.05 µM): 0.807 | relative viability ([8]; first compound 0.1581 µM): 0.891 | relative viability ([8]; first compound 0.5 µM): 0.835 | relative viability ([9]; first compound 0.005 µM): 0.862 | relative viability ([9]; first compound 0.01581 µM): 0.838 | relative viability ([9]; first compound 0.05 µM): 0.861 | relative viability ([9]; first compound 0.1581 µM): 0.822 | relative viability ([9]; first compound 0.5 µM): 0.909 | relative viability ([10]; first compound 0.005 µM): 1 | relative viability ([10]; first compound 0.01581 µM): 1.16 | relative viability ([10]; first compound 0.05 µM): 1.08 | relative viability ([10]; first compound 0.1581 µM): 0.93 | relative viability ([10]; first compound 0.5 µM): 0.888 | relative viability ([11]; first compound 0.005 µM): 1.01 | relative viability ([11]; first compound 0.01581 µM): 0.986 | relative viability ([11]; first compound 0.05 µM): 0.927 | relative viability ([11]; first compound 0.1581 µM): 0.991 | relative viability ([11]; first compound 0.5 µM): 0.963 | relative viability ([12]; first compound 0.005 µM): 1.16 | relative viability ([12]; first compound 0.01581 µM): 1.18 | relative viability ([12]; first compound 0.05 µM): 1.42 | relative viability ([12]; first compound 0.1581 µM): 0.874 | relative viability ([12]; first compound 0.5 µM): 0.896 | relative viability ([13]; first compound 0.005 µM): 0.567 | relative viability ([13]; first compound 0.01581 µM): 0.595 | relative viability ([13]; first compound 0.05 µM): 0.634 | relative viability ([13]; first compound 0.1581 µM): 0.506 | relative viability ([13]; first compound 0.5 µM): 0.743 | relative viability ([14]; first compound 0.005 µM): 0.836 | relative viability ([14]; first compound 0.01581 µM): 1.07 | relative viability ([14]; first compound 0.05 µM): 1.12 | relative viability ([14]; first compound 0.1581 µM): 0.921 | relative viability ([14]; first compound 0.5 µM): 0.887 | relative viability ([15]; first compound 0.005 µM): 0.716 | relative viability ([15]; first compound 0.01581 µM): 0.794 | relative viability ([15]; first compound 0.05 µM): 0.674 | relative viability ([15]; first compound 0.1581 µM): 0.687 | relative viability ([15]; first compound 0.5 µM): 0.981 | relative viability ([16]; first compound 0.005 µM): 0.911 | relative viability ([16]; first compound 0.01581 µM): 0.766 | relative viability ([16]; first compound 0.05 µM): 0.873 | relative viability ([16]; first compound 0.1581 µM): 0.892 | relative viability ([16]; first compound 0.5 µM): 0.976 | relative viability ([17]; first compound 0.005 µM): 0.815 | relative viability ([17]; first compound 0.01581 µM): 0.835 | relative viability ([17]; first compound 0.05 µM): 0.794 | relative viability ([17]; first compound 0.1581 µM): 0.825 | relative viability ([17]; first compound 0.5 µM): 0.866 | relative viability ([18]; first compound 0.005 µM): 0.878 | relative viability ([18]; first compound 0.01581 µM): 0.897 | relative viability ([18]; first compound 0.05 µM): 0.936 | relative viability ([18]; first compound 0.1581 µM): 0.944 | relative viability ([18]; first compound 0.5 µM): 0.662 | relative viability ([19]; first compound 0.005 µM): 0.651 | relative viability ([19]; first compound 0.01581 µM): 0.98 | relative viability ([19]; first compound 0.05 µM): 0.773 | relative viability ([19]; first compound 0.1581 µM): 0.927 | relative viability ([19]; first compound 0.5 µM): 0.699 | relative viability ([20]; first compound 0.005 µM): 0.916 | relative viability ([20]; first compound 0.01581 µM): 0.93 | relative viability ([20]; first compound 0.05 µM): 0.892 | relative viability ([20]; first compound 0.1581 µM): 0.961 | relative viability ([20]; first compound 0.5 µM): 0.873 | relative viability ([21]; first compound 0.005 µM): 0.766 | relative viability ([21]; first compound 0.01581 µM): 0.742 | relative viability ([21]; first compound 0.05 µM): 0.807 | relative viability ([21]; first compound 0.1581 µM): 0.731 | relative viability ([21]; first compound 0.5 µM): 0.711
